Patent US11008325B2, “Inhibitors of cancer invasion, attachment, and/or metastasis” (VIRGINIA COMMONWEALTH UNIVERSITY, priority 2016, dated 2021)
Entries after “also recorded” stand apart in the source; their conditions may differ. Read-outs that look alike come from different tables or passages of the source.

Legend:
[1] = pharmacokinetics after IV and IP administration; type: in vivo, Balb/c mice; conditions: for concentration at 0.25 h: 0.250 h
[2] = toxicity in vivo in pre-clinical animal models; conditions: listed as PDZ1i
[3] = system: HuVEC cells / chorioallantoic membrane; assay: in vitro tube formation and CAM assays with tumor-derived conditioned media; type: cell-based; conditions: data not shown
Method: In this study, the potential impact of PDZ1i on tumor-derived angiogenesis in a prostate cancer context was explored. The experimental strategy is outlined in FIG. 18A. […] This observation was also validated in different PC cells by qPCR. Additionally, since VEGF-A is a potent angiogenic factor and a downstream target of STAT3, the expression pattern of VEGF-A at both mRNA and protein levels was also evaluated in different PC cells, including mda-9 stably expressing RWPE-1 cells (FIG. 18C).
Tube formation and CAM assays were performed as described previously^27. Briefly, tumor-derived conditioned media were collected after 24 h of treatment (either DMSO or PDZ1i) and concentrated. Equal amounts of protein (50 μg) containing conditioned media were mixed with basal media and incubated with HuVEC cells on Matrigel layers. Photographs were taken after 6 h. In CAM assays, DMSO- or PDZ1 i-treated tumor cell-derived conditioned media were implanted on the CAM of 8 day-old fertilized eggs. Photographs were taken on day 12, 4 days after applying conditioned media.

[4] = target: T1, MDA-9/Syntenin and c-Src interactions (Homo sapiens, UniProt O00560); assay: co-immunoprecipitation in C8161.9 cells; type: cell-based
T1 construct: endogenous in cells; host or cells: C8161.9 melanoma cells
Method: FIG. 54. Effects of PDZ1in (113B7) on MDA-9/Syntenin and c-Src interactions. C8161.9 cells were pre-treated with either DMSO or a dose of 113B7 (as indicated) and re-plated onto fibronectin-coated plates. After 30 minutes, cell lysates were immunoprecipitated and immuneblotted with the indicated antibodies. IgG, immunoglobulin.
Another fundamental issue that we will address as part of the proposed hit-to-lead optimization process is the specificity of the binding of 113B7 to the PDZ1 domain of MDA-9/Syntenin. […] To determine if the PDZin molecule alters physical binding we performed co-immunoprecipitation analysis with c-Src and MDA-9/Syntenin in the presence or absence of 113B7 (FIG. 54). In the case of 113B7, which binds to PDZ1 and the interdomain of MDA-9/Syntenin, no inhibition of c-Src binding was evident.

RM1-Luc cells = assay: RM1-Luc intracardiac metastasis model; type: in vivo, C57BL/6 mice; conditions: I.P., 3 injections/first week
Method: FIG. 19A-19F. PDZ1i suppresses prostate cancer metastasis and tumor progression. FIG. 19A) Survival data for athymic nude mice in which DMSO or PDZ1i pre-treated ARCaPM cells were injected. FIG. 19B) Survival data for athymic nude mice which were injected with (n=5, each group) ARCaPM-Luc (1×10^6 cells in 100 μl saline) through an intracardiac route. Mice received either vehicle or PDZ1i every alternative day (9 injections during the first […]) and maintained until they needed to be euthanized. FIG. 19C) Survival data for C57BL/6 mice injected through the intracardiac route with RM1-Luc. Vehicle or PDZ1i was administered through intraperitoneal injection every alternate day (total 3 injections during the first week). Survival curves were generated using 6 control vehicle-treated and 5 PDZ1i-treated. Kaplan—Meier survival curves were prepared using Graph Pad software. […] Graphical representation of the average prostate weights from control and treated groups. FIG. 19E and FIG. 19F) Photomicrographs representing the histological changes in prostate sections obtained from 6-month old Hi-Myc mice receiving either vehicle (FIG. 19E) or PDZ1i (FIG. 19F). To evaluate potential therapeutic efficacy of PDZ1i four sets of in vivo experiments were conducted. […]

[5] = Balb/c, mouse, plasma, IP 30 mg/kg
[6] = Balb/c, mouse, plasma, IP 30 mg/kg, read-out: Plasma Concentration, Mean IP
[7] = Balb/c, mouse, plasma, IV 3 mg/kg, read-out: Plasma Concentration, Mean IV

T1 sequence (O00560 2-298 limits assumed): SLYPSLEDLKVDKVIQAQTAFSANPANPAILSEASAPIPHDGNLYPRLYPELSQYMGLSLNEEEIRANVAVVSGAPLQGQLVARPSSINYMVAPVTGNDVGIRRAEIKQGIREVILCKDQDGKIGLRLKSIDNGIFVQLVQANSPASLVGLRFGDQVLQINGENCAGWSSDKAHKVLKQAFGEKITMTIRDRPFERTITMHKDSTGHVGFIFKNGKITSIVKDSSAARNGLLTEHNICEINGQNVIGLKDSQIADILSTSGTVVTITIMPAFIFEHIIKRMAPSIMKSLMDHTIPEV
T1 sequence (P12931 2-536 partner limits assumed): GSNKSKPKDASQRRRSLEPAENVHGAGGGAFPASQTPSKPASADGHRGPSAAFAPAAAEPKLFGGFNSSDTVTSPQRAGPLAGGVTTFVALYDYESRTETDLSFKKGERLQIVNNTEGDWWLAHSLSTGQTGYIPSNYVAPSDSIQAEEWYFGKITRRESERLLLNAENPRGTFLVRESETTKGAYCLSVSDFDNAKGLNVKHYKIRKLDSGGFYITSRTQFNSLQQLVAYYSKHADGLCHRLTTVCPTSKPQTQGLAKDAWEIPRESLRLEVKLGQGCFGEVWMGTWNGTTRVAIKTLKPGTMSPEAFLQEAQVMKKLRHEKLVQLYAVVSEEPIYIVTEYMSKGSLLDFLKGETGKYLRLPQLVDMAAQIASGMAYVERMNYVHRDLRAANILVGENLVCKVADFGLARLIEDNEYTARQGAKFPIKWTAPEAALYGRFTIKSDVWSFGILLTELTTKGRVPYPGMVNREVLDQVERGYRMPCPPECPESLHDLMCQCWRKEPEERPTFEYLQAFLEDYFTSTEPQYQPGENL

## Cc1cc(NC(=O)c2nc3[nH]c4c(c(=O)n3n2)CCC4)c(C)cc1NC(=O)CCc1nnc(-c2ccccc2)o1 [113B7, N-(2,5-dimethyl-4-(3-(5-phenyl-1,3,4-oxadiazol-2-yl)propanamido)phenyl)-8-oxo-5,6,7,8-tetrahydro-4H-cyclopenta[d][1,2,4]triazolo[1,5-a]pyrimidine-2-carboxamide]
[1]; 3.0 mg/Kg IV and 30.0 mg/Kg IP, mice
  signs of toxicity during the PK experiment: lack of adverse signs of toxicity
[1]; Balb/c, mouse, intravenous, intraperitoneal, in each route: 3.0 mg/Kg IV and 30.0 mg/Kg IP, mice, serum, read-out: T1/2 (very slow clearance)
  half-life: > 9 h
[1]; Balb/c, mouse, plasma, intraperitoneal, 30 mg/kg, IP 30 mg/kg versus IV 3 mg/kg, read-out: Bioavailability (IP/IV)
  bioavailability: 81.2%
[1]; Balb/c, mouse, plasma, ip, 30 mg/kg, IP 30 mg/kg, read-out: AUC0-int (first line)
  AUC: 975 µg·h/mL
[1]; Balb/c, mouse, plasma, ip, 30 mg/kg, IP 30 mg/kg, read-out: AUC0-int (second line)
  AUC: 1180 µg·h/mL
[1]; Balb/c, mouse, plasma, iv, 3 mg/kg, IV 3 mg/kg, read-out: AUC0-int (first line)
  AUC: 120 µg·h/mL
[1]; Balb/c, mouse, plasma, iv, 3 mg/kg, IV 3 mg/kg, read-out: AUC0-int (second line)
  AUC: 124 µg·h/mL
[1]; [5]
  Cmax: 98200 ng/mL
  Tmax: 0.25 h
[1]; [6]
  concentration at 0.25 h: 98200 ng/mL
  concentration at 1 h: 69200 ng/mL
  concentration at 2 h: 59000 ng/mL
  concentration at 6 h: 54600 ng/mL
  concentration at 12 h: 42800 ng/mL
  concentration at 24 h: 15100 ng/mL
[1]; Balb/c, mouse, plasma, IP 30 mg/kg, read-out: T1/2 (converted)
  half-life: 9.42 h
[1]; Balb/c, mouse, plasma, IV 3 mg/kg
  C0: 35000 ng/mL
[1]; [7]
  concentration at 0.25 h: 29500 ng/mL
  concentration at 1 h: 17700 ng/mL
  concentration at 2 h: 11600 ng/mL
  concentration at 6 h: 6110 ng/mL
  concentration at 12 h: 3360 ng/mL
  concentration at 24 h: 541 ng/mL
[1]; Balb/c, mouse, plasma, IV 3 mg/kg, read-out: T1/2 (converted)
  half-life: 5.06 h
[1]; Balb/c, mouse, serum, intravenous and intraperitoneal, in vivo, read-out: half-life (t1/2) (converted)
  half-life: 9 h
[1]; Balb/c, mouse, serum, ip, 30 mg/kg, administered I.P. 30.0 mg/Kg, mice, read-out: bioavailability
  bioavailability: 80%
[1]; administered I.P. 30.0 mg/Kg, mice, 30 mg/kg
  bioavailability: ~100%
[2]
  toxicity / tolerability in vivo: well-tolerated; also recorded: no apparent toxicity
[3]
  angiogenic activity of treated tumor cell-derived conditioned media: anti-angiogenic properties
[4]
  c-Src binding to MDA-9/Syntenin: no inhibition
RM1-Luc cells
  tumor burden in the lungs: significantly reduced the tumor burden in the lungs
